Where “and” joins values, the source holds several entries; their conditions need not be identical. Identical values can stand only once. Each block holds one compound with its values, some of them ahead of it.
Legend:
[1] = Dissolution of glyburide and glyburide solid dispersions in SIFsp, pH 6.8; type: physicochemical; design: drug released per capsule, Table 18C (quantity not headed): unit not given here; conditions: for % Drug Released / Total Drug Released / Normalized Drug Released / drug released per capsule, Table 18C (quantity not headed): gelatin capsule
Method: (§1) All dissolution studies were performed on a Varian VK7025 Dissolution Apparatus equipped with a Varian VK8000 Fraction Collector
(§2) HPLC Methods for Evaluating Dissolution Aliquots:
(§3) Determination of Weight % Phenytoin, Carbamazepine, Glyburide, or Griseofulvin.
(§4) Mobile Phase: 55% acetonitrile/45% ammonium acetate buffer (2.6 g NH4OAc/L H2O with pH adjusted to pH˜5.25 with glacial acetic acid)
(§5) Column: Agilent Eclipse XDB-C8, 4.6 mm×150 mm×5 μm
(§6) Detection: UV 254 nm (UV 214 nm can also be used for phenytoin or carbamazepine, UV 291 nm can also be used for griseofulvin); typically five signals were selected from UV 214 nm, 222 nm, 254 nm, 287 nm, 291 nm, and/or 325 nm were collected for each sample.
Preparation of Glyburide Standard Curves
Glyburide reference standard from USP was dried as directed (106° C. for six hours), then approximately 20-25 mg of glyburide are added to a 25-mL volumetric flask and dissolved in DMSO or 55% acetonitrile/45% ammonium acetate, pH 5.25. The volume was diluted to 25 mL. A set of standard dilutions were prepared either using 10-mL volumetric flasks or Rainin automatic pipetmen.
(§7) Simulated Intestinal Fluid, without pancreatin, pH 6.8 (SIFsp, pH 6.8)—Added monobasic potassium phosphate (KH2PO4, 34 g) to a 4000-mL beaker. Added deionized/polished water (2000 mL) and mixed using a magnetic stir bar until the KH2PO4 is completely dissolved. Added 0.2 N sodium hydroxide (NaOH, 590 mL) and stirred. The pH was adjusted to pH 6.8±0.1 using 0.2 N NaOH. The sample was diluted with deionized/polished water to a final volume of 5000 mL.
(§8) The SIFsp media was heated to ˜45° C. in four 2000-mL Kimax bottles in an oven. The sample was degassed according to USP protocol by filtering through a 0.45 μm membrane filter (Pall, Supor-450, 0.45 μm, 90 mm, part # 60200, Lot # 43214) and stirring under vacuum for 5 minutes.
(§9) Dissolution Conditions #1.
(§10) Dissolution Conditions #2.
These Examples describe the dissolution of glyburide and glyburide solid Dispersions by evaluating the samples described in Examples 109-117. SlFsp, pH 6.8 media preperation was described in the Materials and Methods section.
Samples were transferred into gelatin capsules (Capsugel, size OCS, Lot #624282) using a manual single capsule filler. The weight of each capsule and the amount of sample added are found in Table 18 (Capsule Description).
These Examples describe the dissolution of glyburide and glyburide solid dispersions by evaluating the samples described in Examples 119-124. SIFsp, pH 6.8 media preperation was described in the Materials and Methods section.
Samples were transferred into gelatin capsules (Capsugel, size OCS, Lot # 624282) using a manual single capsule filler. The weight of each capsule and the amount of sample added are found in Tables 19 and 20 (Capsule Description).

[2] = Dissolution of griseofulvin and griseofulvin solid dispersions (with or without surfactant) in SIFsp, pH 6.8; type: physicochemical; conditions: for % Drug Released / Total Drug Released: SIFsp pH 6.8, gelatin capsule, single vessel; for Average % Released: SIFsp, pH 6.8, average of runs
Method: as §1, §2, §3, §4, §5, §6, §7, §8, §9, §10
These Examples describe the dissolution of griseofulvin and griseofulvin solid dispersions by evaluating the samples described in Examples 125-134. SlFsp, pH 6.8 media preparation was described in the Materials and Methods section.
Samples were transferred into gelatin capsules (Capsugel, size 0CS, Lot # 624282) using a manual single capsule filler. The weight of each capsule and the amount of sample added are found in Table 21 and 22 (Capsule Description).
These Examples describe the impact of surfactant additives on the dissolution profiles of griseofulvin/CMCAB solid dispersions. Preparations of the griseofulvin/CMCAB, griseofulvin/CMCAB/Tween 80, and griseofulvin/CMCAB/SDS solid dispersions evaluated in this example are described in Examples 135-138. SIFsp, pH 6.8 media preparation was described in the Materials and Methods section.
Samples were transferred into gelatin capsules (Capsugel, size 00CS, Lot # 637785) using a manual single capsule filler. The weight of each capsule and the amount of sample added are found in Table 23 (Capsule Description).

Average % Released ([1]; 10 min, average of capsules): 0.1549%
Average % Released ([1]; 10 min, average of vessels): 0.0373%
% Drug Released ([1]; 10 min, single vessel): 0.0362% and 0.0355% and 0.0403%
Total Drug Released ([1]; 15 min, single vessel): 0.0321 mg
Average % Released ([1]; 20 min, average of capsules): 1.0081%
Average % Released ([1]; 20 min, average of vessels): 0.2490%
Normalized Drug Released ([1]; 20 min): 0.7201 mg and 0.7299 mg
drug released per capsule, Table 18C (quantity not headed) ([1]; 20 min): 1.0149 and 1.0013
% Drug Released ([1]; 20 min, single vessel): 0.0355% and 0.2912% and 0.4202%
Average % Released ([1]; 30 min, average of capsules): 1.2315%
Average % Released ([1]; 30 min, average of vessels): 0.4372%
Normalized Drug Released ([1]; 30 min): 0.8728 mg and 0.8986 mg
drug released per capsule, Table 18C (quantity not headed) ([1]; 30 min): 1.2495 and 1.2136
% Drug Released ([1]; 30 min, single vessel): 0.4237% and 0.4293% and 0.4587%
Total Drug Released ([1]; 45 min, single vessel): 0.3834 mg and 0.3424 mg and 0.4071 mg
Average % Released ([1]; 60 min, average of capsules): 1.7763%
Average % Released ([1]; 60 min, average of vessels): 0.5522%
Normalized Drug Released ([1]; 60 min): 1.2890 mg and 1.2660 mg
drug released per capsule, Table 18C (quantity not headed) ([1]; 60 min): 1.7923 and 1.7603
% Drug Released ([1]; 60 min, single vessel): 0.4365% and 0.5720% and 0.6480%
Total Drug Released ([1]; 60 min, single vessel): 0.3950 mg and 0.4562 mg and 0.5752 mg
Total Drug Released ([1]; 90 min, single vessel): 0.6124 mg and 0.6166 mg and 0.7677 mg
Average % Released ([1]; 120 min, average of capsules): 2.1001%
Average % Released ([1]; 120 min, average of vessels): 0.7716%
Normalized Drug Released ([1]; 120 min): 1.5740 mg and 1.4468 mg
drug released per capsule, Table 18C (quantity not headed) ([1]; 120 min): 2.1886 and 2.0117
% Drug Released ([1]; 120 min, single vessel): 0.6767% and 0.7732% and 0.8649%
Total Drug Released ([1]; 120 min, single vessel): 0.7134 mg and 0.7222 mg and 0.8356 mg
Total Drug Released ([1]; 150 min, single vessel): 0.8270 mg and 0.8369 mg and 0.9711 mg
Average % Released ([1]; 180 min, average of capsules): 2.2533%
Average % Released ([1]; 180 min, average of vessels): 0.8784%
Normalized Drug Released ([1]; 180 min): 1.6724 mg and 1.5688 mg
drug released per capsule, Table 18C (quantity not headed) ([1]; 180 min): 2.3253 and 2.1813
% Drug Released ([1]; 180 min, single vessel): 0.7882% and 0.9056% and 0.9414%
Total Drug Released ([1]; 180 min, single vessel): 0.8919 mg and 0.9402 mg and 0.9572 mg
Total Drug Released ([1]; 210 min, single vessel): 0.9428 mg and 0.9956 mg and 1.4143 mg
Average % Released ([1]; 240 min, average of capsules): 2.3376%
Average % Released ([1]; 240 min, average of vessels): 1.0191%
Normalized Drug Released ([1]; 240 min): 1.7153 mg and 1.6471 mg
Total Drug Released ([1]; 240 min): 0.1934 mg and 0.1252 mg
drug released per capsule, Table 18C (quantity not headed) ([1]; 240 min): 2.3850 and 2.2902
% Drug Released ([1]; 240 min, single vessel): 0.9138% and 1.0495% and 1.0941%
Total Drug Released ([1]; 240 min, single vessel): 1.0358 mg and 1.0726 mg and 1.2243 mg
Average % Released ([1]; 300 min, average of capsules): 2.4335%
Average % Released ([1]; 300 min, average of vessels): 1.0810%
Normalized Drug Released ([1]; 300 min): 1.7802 mg and 1.7202 mg
Total Drug Released ([1]; 300 min): 0.2583 mg and 0.1982 mg
drug released per capsule, Table 18C (quantity not headed) ([1]; 300 min): 2.4752 and 2.3918
% Drug Released ([1]; 300 min, single vessel): 0.9855% and 1.1790% and 1.0784%
Average % Released ([1]; 360 min, average of capsules): 2.5067%
Average % Released ([1]; 360 min, average of vessels): 1.2945%
Normalized Drug Released ([1]; 360 min): 1.8465 mg and 1.7592 mg
Total Drug Released ([1]; 360 min): 0.3246 mg and 0.2373 mg
drug released per capsule, Table 18C (quantity not headed) ([1]; 360 min): 2.5674 and 2.4461
% Drug Released ([1]; 360 min, single vessel): 1.0417% and 1.2484% and 1.5934%
Average % Released ([1]; 450 min, average of capsules): 2.5617%
Average % Released ([1]; 450 min, average of vessels): 1.2896%
Normalized Drug Released ([1]; 450 min): 1.8424 mg
Total Drug Released ([1]; 450 min): 0.3205 mg
drug released per capsule, Table 18C (quantity not headed) ([1]; 450 min): 2.5617
% Drug Released ([1]; 450 min, single vessel): 1.1444% and 1.3449% and 1.3793%
SMILES: COc1ccc(Cl)cc1C(=O)NCCc1ccc(S(=O)(=O)NC(=O)NC2CCCCC2)cc1 [Glyburide]

griseofulvin release profile ([2]; SIFsp pH 6.8, FIGS. 7-14, in words): rapid release
Average % Released ([2]; 15 min): 39.3874%
Average % Released ([2]; 30 min): 40.0500%
Average % Released ([2]; 45 min): 39.9934%
Average % Released ([2]; 60 min): 40.2064%
Average % Released ([2]; 90 min): 40.8136%
Average % Released ([2]; 120 min): 40.8282%
Average % Released ([2]; 150 min): 39.9849%
Average % Released ([2]; 180 min): 39.5350%
Average % Released ([2]; 210 min): 39.8114%
Average % Released ([2]; 240 min): 39.8038%
SMILES: COC1=CC(=O)C[C@@H](C)[C@]12Oc1c(Cl)c(OC)cc(OC)c1C2=O [griseofulvin, Griseofulvin]
% Drug Released ([2]; 15 min): 39.8059% and 45.3135% and 36.6133% and 35.8167%
Total Drug Released ([2]; 15 min): 13.1651 mg and 12.7375 mg and 12.9809 mg and 12.9579 mg
% Drug Released ([2]; 30 min): 37.0470% and 36.5664% and 39.6132% and 46.9736%
Total Drug Released ([2]; 30 min): 13.1347 mg and 13.2291 mg and 13.1014 mg and 13.0986 mg
% Drug Released ([2]; 45 min): 36.6587% and 36.6412% and 39.5262% and 47.1475%
Total Drug Released ([2]; 45 min): 12.9970 mg and 13.2561 mg and 13.0726 mg and 13.1471 mg
% Drug Released ([2]; 60 min): 37.2839% and 36.7251% and 40.3033% and 46.5134%
Total Drug Released ([2]; 60 min): 13.2187 mg and 13.2865 mg and 13.3296 mg and 12.9703 mg
% Drug Released ([2]; 90 min): 36.3266% and 35.9752% and 39.8005% and 51.1520%
Total Drug Released ([2]; 90 min): 12.8793 mg and 13.0152 mg and 13.1633 mg and 14.2638 mg
% Drug Released ([2]; 120 min): 38.9498% and 36.7450% and 40.2775% and 47.3403%
Total Drug Released ([2]; 120 min): 13.8093 mg and 13.2937 mg and 13.3211 mg and 13.2009 mg
% Drug Released ([2]; 150 min): 36.6774% and 35.8335% and 39.6316% and 47.7972%
Total Drug Released ([2]; 150 min): 13.0036 mg and 12.9639 mg and 13.1075 mg and 13.3283 mg
% Drug Released ([2]; 180 min): 36.6068% and 35.6474% and 39.0996% and 46.7861%
Total Drug Released ([2]; 180 min): 12.9786 mg and 12.8966 mg and 12.9315 mg and 13.0464 mg
% Drug Released ([2]; 210 min): 37.1385% and 35.7882% and 39.5796% and 46.7393%
Total Drug Released ([2]; 210 min): 13.1671 mg and 12.9476 mg and 13.0903 mg and 13.0333 mg
% Drug Released ([2]; 240 min): 36.7973% and 36.6212% and 39.5780% and 46.2187%
Total Drug Released ([2]; 240 min): 13.0461 mg and 13.2489 mg and 13.0897 mg and 12.8881 mg
